Measured values taken from US20210214385A1, “INHIBITORS OF D-AMINO ACID OXIDASE AND USES THEREOF” (SyneuRx International (Taiwan) Corp., priority 2018, published 2021).
Values joined by “and” are separate entries in the source; they are usually repeats but may differ in a detail not shown here. Equal entries are not always repeated.

Assays:
[1] = molecular target: human D-amino acid oxidase (hDAAO) (Homo sapiens, UniProt P14920); assay: In vitro measurement of human D-amino acid oxidase (hDAAO) activity, D-Serine substrate, Amplex Red fluorescence; assay type: biochemical
[2] = Log P, n-octanol/water partition coefficient, HPLC; assay type: physicochemical
Protocol: The sample compounds tested in the log P experiments included enriched tannic acid (prepared by the enrichment method 10 of U.S. Ser. No. 10/105,378), compounds 21, 24, 27, 46, and 56. First, n-Octanol and water was saturated with each other to achieve partition equilibrium and the two phases were separated for further use. Sample compounds were dissolved in water and n-octanol phase, respectively. Both phases were mixed by vertical rotation movement. After the water and n-octal phases reached equilibrium state, both phases were analyzed to determine the concentrations of the sample compounds for the determination of log P values. All samples were performed in a Shimadzu CBM-20A FfPLC system. The chromatographic separation was carried out on a 5 μm, Kinetex C18 100 Å LC column (100×4.6 mm). The mobile phase was 0.1% formic acid in water and acetonitrile/Methanol set as gradient. Flow rate used was 1.2 mL/min. Column was at room temperature 20±5° C.
The partition coefficient abbreviated P is calculated based on the concentration in n-octanol divided by the concentration in water. The formula of log P is shown below: […]

MK-801 treated mice = assay: Pre-pulse inhibition in MK-801 treated mice; assay type: in vivo; conditions: 30 mg/kg oral, MK-801 0.3 mg/kg i.p., male mice
Protocol: C57BL/6J male mice were group housed under the same condition as described in Example 1. Mice were randomly assigned into three groups, Group 1: vehicle control, Group 2: MK-801, Group 3: Cpd 24 (30 mg/kg)+MK-801. Mice in Group 2-3 received an acute intraperitoneal (i.p.) injection of MK-801 (Sigma-Aldrich USA), a NMDA receptor antagonist, dissolved in normal saline, at 0.3 mg/kg 20 minutes prior to the pre-pulse inhibition test. Each mouse in Group 1-2 and Group 3 received, respectively, an acute oral administration of 65% PEG400 in ddH2O and compound 24 at 30 mg/kg (dissolved with 65% PEG400 in ddH2O) 20 minutes prior to the MK-801 administration.
Pre-pulse inhibition, using SR-LAB startle apparatus (San Diego Instruments, San Diego, Calif., USA), was used to determine the efficacy of compound 24 on attenuating the MK-801 induced deficit of sensorimotor gating function in mice. Under 65 dB background noise, each session was composed of 5-minutes accumulation period followed by 64 trials in four blocks. The pulse alone (PA) trial was a 40 ms, 120 dB white noise burst. In the prepulse (pp)+pulse trials, a 20 ms white noise prepulse stimuli of 71 dB (pp6), 75 dB (pp10), and 83 dB (pp18) were presented 100 ms before a 40 ms 120 dB pulse. The non-stimulus (NS) trials presented the background noise only. The initial and the last blocks were composed of six PA trials, respectively. Two middle blocks consisted of PA, pp+pulse, and NS trials. These trials were presented pseudo-randomly and separated by intertribal intervals of 15 seconds on average (varying between 10 to 20 s). The percentage of prepulse inhibition was evaluated by the following formula: % PPI=100× [(PA score)−(pp-P score)]/(PA score), where the PA score was the average of the PA value in the middle blocks.

[3] = Concentration in mouse brain after i.p. administration, HPLC-MS after tannase hydrolysis into gallic acid; assay type: in vivo, mice
Protocol: The objective of this experiment was to compare the concentration of Compound 24 and enriched tannic acid in mouse brain after intraperitoneal (i.p.) administration. The enriched tannic acid was prepared by the enrichment method 10 of U.S. Ser. No. 10/105,378. C57BL/6J mice at 14 weeks of age were divided into two groups with 3 mice each. The mice in group I and II were, respectively, i.p. injected with Compound 24 at 30 mg/kg and enriched tannic acid at 15 mg/kg once every two days for three months. The brain sample was collected from each animal at 24 hours after the final i.p. administration and immediately frozen and stored at −70° C. until further use.
The amounts of Compound 24 and enriched tannic acid in mice brain were analyzed by high performance liquid chromatography-mass spectrometry (HPLC-MS) after enzymatic hydrolysis into gallic acid. Each frozen brain sample was homogenized with 4-fold volume of deionized water (ddH2O) using a handheld tissue homogenizer (BT Lab Systems). […]
Chromatographic analysis was performed using a Phenomenex Kinetex C8 column (150×4.6 mm, 5 μm). […] Quantitation was done using the selected-ion monitoring chromatogram (SIM) mode to monitor the precursor ion of m/z 169 for gallic acid and m/z 137 for 4-hydroxybenzoic acid as an internal standard. […]

in vivo = conditions: C57BL/6J, mouse, po

human D-amino acid oxidase (hDAAO), sequence (P14920 whole entry): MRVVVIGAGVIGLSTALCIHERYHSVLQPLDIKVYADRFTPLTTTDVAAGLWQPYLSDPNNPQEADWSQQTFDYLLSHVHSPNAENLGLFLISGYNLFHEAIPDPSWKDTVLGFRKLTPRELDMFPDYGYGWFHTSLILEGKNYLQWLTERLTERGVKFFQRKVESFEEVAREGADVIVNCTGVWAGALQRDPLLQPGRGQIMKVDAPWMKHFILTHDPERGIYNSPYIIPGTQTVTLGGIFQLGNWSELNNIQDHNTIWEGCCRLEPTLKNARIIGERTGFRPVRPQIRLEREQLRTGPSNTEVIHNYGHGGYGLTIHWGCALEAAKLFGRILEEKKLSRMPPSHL

Compound | IC50 [1] | logP [2] | pre-pulse inhibition percentage (MK-801 treated mice; 71 dB pre-pulse intensity) | MK-801 induced pre-pulse inhibition deficit (MK-801 treated mice; 75 dB pre-pulse intensity) | pre-pulse inhibition percentage (MK-801 treated mice; 83 dB pre-pulse intensity) | Concentration (amount per g brain tissue) ([3]; 30 mg/kg i.p. once every two days for three months, 24 hours after final dose) [ng/g] | brain concentration relative to enriched tannic acid ([3]; compound 24 at 30 mg/kg vs enriched tannic acid at 15 mg/kg i.p.) | MTD at 7 day (in vivo) [mg/kg]
O=C(OC[C@H]1O[C@H](OC(=O)c2cc(O)c(O)c(OC(=O)c3cc(O)c(O)c(OC(=O)c4cc(O)c(O)c(OC(=O)c5cc(O)c(O)c(O)c5)c4)c3)c2)[C@H](OC(=O)c2cc(O)c(O)c(OC(=O)c3cc(O)c(O)c(OC(=O)c4cc(O)c(O)c(OC(=O)c5cc(O)c(O)c(O)c5)c4)c3)c2)[C@@H](OC(=O)c2cc(O)c(O)c(OC(=O)c3cc(O)c(O)c(OC(=O)c4cc(O)c(O)c(OC(=O)c5cc(O)c(O)c(O)c5)c4)c3)c2)[C@@H]1OC(=O)c1cc(O)c(O)c(OC(=O)c2cc(O)c(O)c(OC(=O)c3cc(O)c(O)c(OC(=O)c4cc(O)c(O)c(O)c4)c3)c2)c1)c1cc(O)c(O)c(OC(=O)c2cc(O)c(O)c(OC(=O)c3cc(O)c(O)c(OC(=O)c4cc(O)c(O)c(O)c4)c3)c2)c1 [Compound 27, (2R,3R,4S,5R,6R)-6-(((3-((3,4-dihydroxy-5-((3,4-dihydroxy-5-((3,4,5-trihydroxybenzoyl)oxy)benzoyl)oxy)benzoyl)oxy)-4,5-dihydroxybenzoyl)oxy)methyl)tetrahydro-2H-pyran-2,3,4,5-tetrayl tetrakis(3-((3,4-dihydroxy-5-((3,4-dihydroxy-5-((3,4,5-trihydroxybenzoyl)oxy)benzoyl)oxy)benzoyl)oxy)-4,5-dihydroxybenzoate)] | 10.9 nM and 11 nM | 0.6 |  |  |  |  |  | 
O=C(OC[C@H]1O[C@H](OC(=O)c2cc(O)c(O)c(OC(=O)c3cc(O)c(O)c(OC(=O)c4cc(O)c(O)c(O)c4)c3)c2)[C@H](OC(=O)c2cc(O)c(O)c(OC(=O)c3cc(O)c(O)c(OC(=O)c4cc(O)c(O)c(O)c4)c3)c2)[C@@H](OC(=O)c2cc(O)c(O)c(OC(=O)c3cc(O)c(O)c(OC(=O)c4cc(O)c(O)c(O)c4)c3)c2)[C@@H]1OC(=O)c1cc(O)c(O)c(OC(=O)c2cc(O)c(O)c(OC(=O)c3cc(O)c(O)c(O)c3)c2)c1)c1cc(O)c(O)c(OC(=O)c2cc(O)c(O)c(OC(=O)c3cc(O)c(O)c(O)c3)c2)c1 [Compound 24, (2R,3R,4S,5R,6R)-6-(((3-((3,4-dihydroxy-5-((3,4,5-trihydroxybenzoyl)oxy)benzoyl)oxy)-4,5-dihydroxybenzoyl)oxy)methyl)tetrahydro-2H-pyran-2,3,4,5-tetrayl tetrakis(3-((3,4-dihydroxy-5-((3,4,5-trihydroxybenzoyl)oxy)benzoyl)oxy)-4,5-dihydroxybenzoate)] | 13 nM | 0.58 | moderately increased the inhibition percentage | significantly improved | moderately increased the inhibition percentage | 2714.19 | more than 9 times | 4500
O=C(Oc1cc(OC(=O)c2cc(O)c(O)c(OC(=O)c3cc(O)c(O)c(OC(=O)c4cc(O)c(O)c(OC(=O)c5cc(O)c(O)c(OC(=O)c6cc(O)c(O)c(O)c6)c5)c4)c3)c2)cc(OC(=O)c2cc(O)c(O)c(OC(=O)c3cc(O)c(O)c(OC(=O)c4cc(O)c(O)c(OC(=O)c5cc(O)c(O)c(OC(=O)c6cc(O)c(O)c(O)c6)c5)c4)c3)c2)c1)c1cc(O)c(O)c(OC(=O)c2cc(O)c(O)c(OC(=O)c3cc(O)c(O)c(OC(=O)c4cc(O)c(O)c(OC(=O)c5cc(O)c(O)c(O)c5)c4)c3)c2)c1 [Compound 56, benzene-1,3,5-triyl tris(3-((3-((3-((3,4-dihydroxy-5-((3,4,5-trihydroxybenzoyl)oxy)benzoyl)oxy)-4,5-dihydroxybenzoyl)oxy)-4,5-dihydroxybenzoyl)oxy)-4,5-dihydroxybenzoate)] | 5.4 nM and 5 nM | 1.92 |  |  |  |  |  | 
